This is an account of results in patent US8609836B2, “4-aryl-2-anilino-pyrimidines” (Janssen Pharmaceutica NV, priority 2008, dated 2013).

One test has as its target PLK4 (h) (Homo sapiens, UniProt O00444). Kind of test: PLK-4 human kinase inhibition, scintillation proximity assay (SPA). To be noted: read-out: PLK4 pIC50 (converted). Format: biochemical.
The target in a further test is GSK3β (h) (Homo sapiens, UniProt P49841). Kind of test: GSK-3β human kinase inhibition, SPA. Format: biochemical. To be noted: read-out: GSK3b pIC50 (converted). Put shortly:
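Radiometric: 33P-labelled peptide captured on streptavidin SPA beads after EDTA stop and imaged on Leadseeker. Reaction ran 1 h at RT, 1 μM cold ATP with 2 nM [γ-33P]ATP, 1 μM biotin-peptide substrate, human GSK3β 1 μg/ml, pH 7.4 Tris buffer.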

The next test deals with CDK1/CyclinB (h) (Homo sapiens, UniProt P06493). The experiment in a line: CDK1/CyclinB human kinase inhibition, Invitrogen's FRET assay (Z'lyte). The following applies: read-out: CDK1 pIC50 (converted). Format: biochemical. The essentials: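 Read-out is the 460 nm/538 nm emission ratio (390 nm excitation) after a 60 min protease development step. Before that, 10 μM ATP and 2 μM Z'lyte Ser/Thr peptide 12 react 60 min at room temperature with 0.2 μg/ml human CDK1/CyclinB in Hepes pH 7.5 containing MgCl2, EGTA and Brij-35.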

For a further test, the target named is CDK4/CyclinD1 (h) (Homo sapiens, UniProt P11802). The experiment in a line: CDK4/CyclinD1 human kinase inhibition, SPA with GST-pRb substrate. Format: biochemical. The following applies: read-out: CDK4 pIC50 (converted). Put shortly:
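Scintillation proximity format: after EDTA/Triton stop containing glutathione SPA beads, 33P incorporation was counted. The reaction ran 60 min at room temperature in Hepes pH 7.5 with NaF, MgCl2, DTT, using 2.5 μg/ml human CDK4/CyclinD1, 40 μg/ml GST-pRb substrate and 2 nM [γ-33P]ATP.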

The target in a further test is PLK1 T210D (h) (Homo sapiens, UniProt P53350, T210D). The experiment in a line: PLK1 human kinase inhibition, SPA. Format: biochemical. The following applies: read-out: PLK1 pIC50 (converted). Put shortly: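 Kinase incubated 40 min at room temperature with 0.1 μM ATP (2 nM [γ-33P]ATP tracer), 2 μM biotinylated peptide, pH 8.0 Hepes buffer with 2 mM MnCl2 and 1 mM DTT; enzyme at 0.125 ng/ml. Stopped with EDTA; 33P-peptide bound to streptavidin scintillant beads and imaged.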

Another test deals with HCT-116. The experiment in a line: Cellular proliferation assay (Alamar blue), HCT-116. Format: cell-based. The following applies: Homo sapiens, 10% FCS, 72 hours with compound, Alamar blue 4 h. Put shortly:
(§1)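 Growth inhibition measured after 72 h incubation with compound, following 24 h pre-culture at 37° C, 5% CO2 with 10% FCS. Resazurin-based read-out at 544/590 nm after 4 h (HCT-116), 6 h (U87-MG) or 24 h (A2780, MDA-MB-231); results relative to control.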
(In general: Alamar Blue is a resazurin reagent that responds to reducing activity.)

In another test the test system is H1299. The experiment in a line: Cellular proliferation assay (Alamar blue), H1299. Format: cell-based. To be noted: Homo sapiens, NCI-H1299; 10% FCS; 72 hours with compound; Alamar blue 4 h. Put shortly: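 This proliferation assay on NCI-H1299 cells used an initial 24-hour compound-free incubation after seeding, followed by 72 hours of compound treatment with 10% FCS serum at 37° C. and 5% (v/v) CO2. Viable cells were quantified by a 4 h Alamar blue incubation and fluorescent plate reading at 544 nm/590 nm, and effects were expressed relative to control cells.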

A further test has as its system A2780. Kind of test: Cellular proliferation assay (Alamar blue), A2780. Format: cell-based. The following applies: Homo sapiens, 10% FCS, 72 hours with compound, Alamar blue 24 h, read-out: A2780 (cellular proliferation assay, Table 4) (converted). The essentials: as §1
Another test deals with MDA-MB-231. Kind of test: Cellular proliferation assay (Alamar blue), MDA-MB-231. Format: cell-based. To be noted: Homo sapiens, 10% FCS, 72 hours with compound, Alamar blue 24 h, read-out: MDA/MB231 (cellular proliferation assay, Table 4) (converted). Put shortly: as §1

Chain of PLK1 T210D (h) (P53350 whole entry T210D): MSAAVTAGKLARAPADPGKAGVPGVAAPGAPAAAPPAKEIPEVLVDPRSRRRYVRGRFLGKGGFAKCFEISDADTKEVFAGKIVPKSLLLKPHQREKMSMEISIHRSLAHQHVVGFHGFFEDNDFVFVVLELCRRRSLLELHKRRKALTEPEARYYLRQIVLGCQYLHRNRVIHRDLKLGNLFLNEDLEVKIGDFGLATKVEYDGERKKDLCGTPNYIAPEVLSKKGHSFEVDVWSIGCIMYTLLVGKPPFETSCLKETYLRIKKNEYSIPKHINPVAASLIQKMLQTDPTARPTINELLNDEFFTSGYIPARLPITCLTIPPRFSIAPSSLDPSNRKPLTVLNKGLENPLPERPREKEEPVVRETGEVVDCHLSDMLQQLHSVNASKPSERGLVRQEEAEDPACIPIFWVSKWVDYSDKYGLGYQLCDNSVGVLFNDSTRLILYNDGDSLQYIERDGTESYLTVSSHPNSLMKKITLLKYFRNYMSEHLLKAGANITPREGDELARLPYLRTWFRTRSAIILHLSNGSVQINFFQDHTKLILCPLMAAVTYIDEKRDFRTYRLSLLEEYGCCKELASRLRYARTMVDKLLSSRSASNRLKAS
Chain of CDK1/CyclinB (h) (P06493 whole entry): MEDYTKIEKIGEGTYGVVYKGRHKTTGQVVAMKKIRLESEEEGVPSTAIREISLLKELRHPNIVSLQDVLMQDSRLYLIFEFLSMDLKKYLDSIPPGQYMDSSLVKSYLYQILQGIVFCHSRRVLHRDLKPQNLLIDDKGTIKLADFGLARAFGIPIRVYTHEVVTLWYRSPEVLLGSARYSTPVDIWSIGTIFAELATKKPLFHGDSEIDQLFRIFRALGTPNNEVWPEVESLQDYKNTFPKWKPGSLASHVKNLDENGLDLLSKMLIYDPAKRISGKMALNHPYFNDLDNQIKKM
Chain of CDK1/CyclinB (h) (P14635 whole entry partner): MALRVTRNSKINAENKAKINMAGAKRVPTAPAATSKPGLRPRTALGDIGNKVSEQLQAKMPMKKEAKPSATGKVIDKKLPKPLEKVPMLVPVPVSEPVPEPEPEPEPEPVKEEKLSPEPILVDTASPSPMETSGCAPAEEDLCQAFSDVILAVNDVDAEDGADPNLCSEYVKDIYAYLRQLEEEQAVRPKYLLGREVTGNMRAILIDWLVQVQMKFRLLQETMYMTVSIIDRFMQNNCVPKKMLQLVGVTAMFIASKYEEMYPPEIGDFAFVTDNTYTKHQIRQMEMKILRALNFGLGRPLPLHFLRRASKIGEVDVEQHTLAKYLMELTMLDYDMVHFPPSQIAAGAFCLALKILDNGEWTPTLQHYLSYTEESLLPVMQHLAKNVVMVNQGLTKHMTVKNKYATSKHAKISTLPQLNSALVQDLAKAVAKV
Chain of GSK3β (h) (P49841 whole entry): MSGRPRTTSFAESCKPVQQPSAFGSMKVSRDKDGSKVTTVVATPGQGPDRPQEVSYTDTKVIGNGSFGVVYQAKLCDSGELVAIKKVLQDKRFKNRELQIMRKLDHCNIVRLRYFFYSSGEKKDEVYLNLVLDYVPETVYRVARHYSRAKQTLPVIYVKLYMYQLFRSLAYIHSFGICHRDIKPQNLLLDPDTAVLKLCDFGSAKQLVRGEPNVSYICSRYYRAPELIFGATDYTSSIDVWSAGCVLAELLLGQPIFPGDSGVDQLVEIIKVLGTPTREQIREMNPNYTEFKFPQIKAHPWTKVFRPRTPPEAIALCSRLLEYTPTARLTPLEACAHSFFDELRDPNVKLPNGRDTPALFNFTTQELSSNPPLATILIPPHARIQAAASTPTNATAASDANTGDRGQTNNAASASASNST
Chain of CDK4/CyclinD1 (h) (P11802 whole entry): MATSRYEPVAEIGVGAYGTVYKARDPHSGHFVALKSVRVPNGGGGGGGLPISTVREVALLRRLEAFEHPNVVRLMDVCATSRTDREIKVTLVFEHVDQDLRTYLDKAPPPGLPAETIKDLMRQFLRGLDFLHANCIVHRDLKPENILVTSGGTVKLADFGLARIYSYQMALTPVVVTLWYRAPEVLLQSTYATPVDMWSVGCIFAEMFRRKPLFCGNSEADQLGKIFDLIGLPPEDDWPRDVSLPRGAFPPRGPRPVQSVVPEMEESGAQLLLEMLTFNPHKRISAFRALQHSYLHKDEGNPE
Chain of CDK4/CyclinD1 (h) (P24385 whole entry partner): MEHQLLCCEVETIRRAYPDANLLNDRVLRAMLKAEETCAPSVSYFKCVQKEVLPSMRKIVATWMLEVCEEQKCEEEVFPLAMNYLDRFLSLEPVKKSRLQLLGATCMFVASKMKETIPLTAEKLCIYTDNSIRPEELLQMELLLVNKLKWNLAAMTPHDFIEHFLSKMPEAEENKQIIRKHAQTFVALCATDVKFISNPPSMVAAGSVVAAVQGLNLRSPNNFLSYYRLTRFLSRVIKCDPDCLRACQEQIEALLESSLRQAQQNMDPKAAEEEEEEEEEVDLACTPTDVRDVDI
Chain of PLK4 (h) (O00444 whole entry): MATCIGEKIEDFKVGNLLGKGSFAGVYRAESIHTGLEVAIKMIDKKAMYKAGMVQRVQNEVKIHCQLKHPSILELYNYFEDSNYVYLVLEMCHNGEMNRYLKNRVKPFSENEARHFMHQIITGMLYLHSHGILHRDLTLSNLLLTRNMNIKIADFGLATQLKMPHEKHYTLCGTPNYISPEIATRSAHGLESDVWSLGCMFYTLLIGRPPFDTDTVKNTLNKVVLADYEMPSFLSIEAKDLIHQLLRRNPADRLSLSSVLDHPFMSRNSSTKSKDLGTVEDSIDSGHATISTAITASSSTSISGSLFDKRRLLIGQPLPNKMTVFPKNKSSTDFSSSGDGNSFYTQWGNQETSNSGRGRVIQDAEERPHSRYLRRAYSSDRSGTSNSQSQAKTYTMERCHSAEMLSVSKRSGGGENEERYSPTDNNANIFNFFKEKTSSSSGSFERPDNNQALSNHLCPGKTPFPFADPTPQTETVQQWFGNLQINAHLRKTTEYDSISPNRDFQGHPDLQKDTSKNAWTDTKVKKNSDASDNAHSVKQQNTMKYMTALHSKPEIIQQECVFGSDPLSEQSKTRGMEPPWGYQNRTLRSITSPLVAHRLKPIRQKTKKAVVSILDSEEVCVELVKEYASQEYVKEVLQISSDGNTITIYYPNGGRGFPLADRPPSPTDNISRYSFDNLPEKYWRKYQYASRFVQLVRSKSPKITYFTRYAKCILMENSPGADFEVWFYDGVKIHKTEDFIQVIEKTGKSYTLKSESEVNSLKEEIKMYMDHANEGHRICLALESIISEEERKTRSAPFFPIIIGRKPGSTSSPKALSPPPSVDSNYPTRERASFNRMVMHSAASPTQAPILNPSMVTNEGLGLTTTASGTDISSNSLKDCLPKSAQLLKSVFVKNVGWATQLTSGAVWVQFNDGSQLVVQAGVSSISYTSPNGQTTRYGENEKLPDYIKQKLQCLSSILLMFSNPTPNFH

On to `COc1cc2cc(c1)Nc1nccc(n1)-c1ccc(cc1)CN(C)CCNC(=O)[C@H](CO)NC2` [Compound 109], for which the IC50 was 741 nM at PLK4 (h); 4.79 µM at GSK3β (h); over 10 µM at CDK1/CyclinB (h); over 10 µM on CDK4/CyclinD1 (h); over 10 µM at PLK1 T210D (h); 2.69 µM in the test on HCT-116. Also, the IC50 with H1299, with A2780 and in the test with MDA-MB-231 was over 10 µM throughout.
Take `O=C1NCc2ccc(cc2)-c2ccnc(n2)Nc2ccc(N3CCOCC3)c(c2)CN2CCC[C@@H]12` [Compound 49]: the IC50 on PLK4 (h) is 5890 nM; on GSK3β (h), over 10 µM; at CDK1/CyclinB (h), over 10 µM; on CDK4/CyclinD1 (h), over 10 µM; at PLK1 T210D (h), over 10 µM; in the test with HCT-116 it was over 10 µM. The results for the IC50 in the test with H1299, in the test with A2780 and with MDA-MB-231 were over 10 µM, 4.07 µM and over 10 µM, respectively.
As to `CN1CCNC(=O)[C@@H]2CCCN2Cc2cc(cc(N3CCOCC3)c2)Nc2nccc(n2)-c2ccc(cc2)C1` [Compound 154], the IC50 on PLK4 (h) was 813 nM; on GSK3β (h), over 10 µM; at CDK1/CyclinB (h), over 10 µM; on CDK4/CyclinD1 (h) it was over 10 µM; on PLK1 T210D (h) it was over 10 µM; in the test on HCT-116, over 10 µM. In addition, the IC50 in the test on H1299, in the test on A2780 and in the test on MDA-MB-231 was over 10 µM each time.
Regarding `O=C1NCCOc2cccc(c2)-c2ccnc(n2)Nc2ccc(N3CCOCC3)c(c2)CN2CCC1CC2` [Compound 94], the IC50 on PLK4 (h) was 2630 nM; at GSK3β (h) it was 2.95 µM; on CDK1/CyclinB (h) it was over 10 µM; on CDK4/CyclinD1 (h), 3.63 µM; on PLK1 T210D (h), over 10 µM; with HCT-116, 9.12 µM. In addition, the IC50 is 8.13 µM in the test on H1299, over 10 µM in the test on A2780 and over 10 µM with MDA-MB-231.
For `CN1CCC(NC(=O)c2cc3cc(c2)Nc2nccc(n2)-c2cccc(c2)CNC(=O)[C@@H]2CCCN2C3)CC1` [Compound 38], the IC50 was 263 nM at PLK4 (h); 0.186 µM on GSK3β (h); 1.66 µM at CDK1/CyclinB (h); 3.47 µM on CDK4/CyclinD1 (h); over 10 µM on PLK1 T210D (h); 1.23 µM with HCT-116. For the same molecule, the IC50 is over 10 µM in the test with H1299, 2.69 µM in the test with A2780 and 6.31 µM with MDA-MB-231.
With `COc1cc2cc(c1)Nc1nccc(n1)-c1ccc(cc1)CN(C)CCNC(=O)CN1CCN(CC1)C2` [Compound 132], the IC50 on PLK4 (h) is 1410 nM; on GSK3β (h), 2 µM; at CDK1/CyclinB (h), over 10 µM; on CDK4/CyclinD1 (h), over 10 µM; at PLK1 T210D (h) it was over 10 µM; with HCT-116 it was 5.89 µM. Besides, the IC50 in the test with H1299, in the test on A2780 and in the test on MDA-MB-231 was over 10 µM each time.
In the case of `COc1cc2cc(c1)Nc1nccc(n1)-c1ccc(OC)c(c1)CN(C)CCCNC(=O)CN1CCN(CC1)C2` [Compound 140], the IC50 on PLK4 (h) is 2690 nM; at GSK3β (h), 7.41 µM; on CDK1/CyclinB (h) it was over 10 µM; at CDK4/CyclinD1 (h) it was over 10 µM; on PLK1 T210D (h), over 10 µM; with HCT-116, 1.55 µM. Also, the IC50 with H1299, with A2780 and in the test on MDA-MB-231 was over 10 µM each time.
Regarding `C[C@@H]1NCc2ccc(cc2)Nc2nccc(n2)-c2cccc(c2)CNC1=O` [Compound 190], the IC50 on PLK4 (h) is over 10000 nM; on GSK3β (h), 1.29 µM; on CDK1/CyclinB (h) it was 6.46 µM; at CDK4/CyclinD1 (h), over 10 µM; on PLK1 T210D (h), over 10 µM; in the test on HCT-116, over 10 µM. Also, the IC50 in the test on H1299, in the test on A2780 and with MDA-MB-231 was over 10 µM throughout.
As to `COc1ccc2cc1CN(C)CCNC(=O)C1CCN(CC1)Cc1cc(NCCc3ccccc3)cc(c1)Nc1nccc-2n1` [Compound 74], the IC50 at PLK4 (h) was 2950 nM; at GSK3β (h), over 10 µM; at CDK1/CyclinB (h), over 10 µM; on CDK4/CyclinD1 (h) it was over 10 µM; on PLK1 T210D (h), over 10 µM; with HCT-116 it was 4.68 µM. The IC50 in the test on H1299 was over 10 µM; with A2780, 3.02 µM; in the test with MDA-MB-231 it was 5.89 µM.
Consider `CN(C)C(=O)c1cc2cc(c1)Nc1nccc(n1)-c1cccc(c1)CNC(=O)[C@@H]1CCCN1C2` [Compound 35], for which the IC50 is 204 nM on PLK4 (h); 0.204 µM at GSK3β (h); 0.288 µM at CDK1/CyclinB (h); 1.35 µM at CDK4/CyclinD1 (h); over 10 µM at PLK1 T210D (h); 1.32 µM in the test on HCT-116. In addition, the IC50 with H1299 was over 10 µM; in the test on A2780, 3.39 µM; in the test on MDA-MB-231, over 10 µM.
As for `COc1ccc2cc1CN(C)CCNC(=O)CN1CCN(CC1)Cc1cc(NCCc3ccccc3)cc(c1)Nc1nccc-2n1` [Compound 138], the IC50 on PLK4 (h) is 2140 nM; on GSK3β (h), over 10 µM; on CDK1/CyclinB (h), over 10 µM; at CDK4/CyclinD1 (h), over 10 µM; on PLK1 T210D (h), over 10 µM; with HCT-116, 3.09 µM. Further, the IC50 is 10 µM in the test with H1299, 5.5 µM in the test on A2780 and 5.89 µM in the test on MDA-MB-231.
For the molecule `O=C1CN2CCN(CC2)Cc2ccc(cc2)Nc2nccc(n2)-c2cccc(c2)CN1` [Compound 193], the IC50 on PLK4 (h) is over 10000 nM; at GSK3β (h), 3.24 µM; on CDK1/CyclinB (h), over 10 µM; on CDK4/CyclinD1 (h) it was 4.37 µM; on PLK1 T210D (h) it was over 10 µM; with HCT-116 it was over 10 µM. Further, the IC50 in the test with H1299, in the test on A2780 and in the test on MDA-MB-231 was over 10 µM in each case.
Consider `O=C1CN2CCN(CC2)Cc2cc(ccc2N2CCOCC2)Nc2nccc(n2)-c2cccc(c2)CN1` [Compound 20], for which the IC50 at PLK4 (h) was 5250 nM; on GSK3β (h), 6.03 µM; at CDK1/CyclinB (h) it was over 10 µM; on CDK4/CyclinD1 (h) it was over 10 µM; at PLK1 T210D (h), over 10 µM; in the test with HCT-116, over 10 µM. Also, the values for the IC50 in the test on H1299, in the test on A2780 and with MDA-MB-231 were over 10 µM, over 10 µM and over 3.02 µM, respectively.
In the case of `COc1cc2cc(c1OC)CN1CCC[C@H]1C(=O)NCc1cccc(c1)-c1ccnc(n1)N2` [Compound 23], the IC50 on PLK4 (h) was 74.1 nM; at GSK3β (h), 0.195 µM; at CDK1/CyclinB (h) it was over 10 µM; on CDK4/CyclinD1 (h), over 10 µM; on PLK1 T210D (h) it was over 10 µM; in the test with HCT-116, over 10 µM. In addition, the IC50 with H1299, with A2780 and in the test on MDA-MB-231 was over 10 µM throughout.
As for `O=C1CN2CCN(CC2)Cc2ccc(Cl)c(c2)Nc2nccc(n2)-c2cccc(c2)CN1` [Compound 195], the IC50 is over 10000 nM at PLK4 (h); over 10 µM on GSK3β (h); over 10 µM on CDK1/CyclinB (h); over 10 µM at CDK4/CyclinD1 (h); over 10 µM on PLK1 T210D (h); over 10 µM with HCT-116. Further, the IC50 with H1299, with A2780 and in the test on MDA-MB-231 was over 10 µM in each case.
As for `COc1ccc2cc1CN(C)CCNC(=O)[C@@H]1CCCN1Cc1cc(C#N)cc(c1)Nc1nccc-2n1` [Compound 181], the IC50 on PLK4 (h) was over 10000 nM; at GSK3β (h), over 10 µM; at CDK1/CyclinB (h), over 10 µM; at CDK4/CyclinD1 (h), over 10 µM; at PLK1 T210D (h), over 10 µM; with HCT-116, 4.9 µM. Also, the IC50 with H1299, in the test on A2780 and with MDA-MB-231 was over 10 µM each time.
On to `O=C1NCc2cccc(c2)-c2ccnc(n2)Nc2cc(ccc2Cl)CN[C@H]1Cc1ccccc1` [Compound 189], for which the IC50 is over 10000 nM at PLK4 (h); 6.92 µM at GSK3β (h); 5.62 µM at CDK1/CyclinB (h); 5.75 µM on CDK4/CyclinD1 (h); over 10 µM on PLK1 T210D (h); over 10 µM in the test with HCT-116. Moreover, the IC50 in the test on H1299, in the test with A2780 and with MDA-MB-231 was over 10 µM each time.
